The values that follow come from patent US20230322779A1 (priority 2020, published 2023).

In data set [1] the test system is SARS-CoV-2 (βCoV/KOR/KCDC03/2020). In words: Dose-response curve analysis by immunofluorescence, anti-SARS-CoV-2 activity in Calu-3 cells. The class given is cell-based.
In the next data set the test system is SARS-CoV-2 B.1.1.7. Kind of data set: SARS-CoV-2 in primary human bronchial cells at air liquid interface (HAEC-ALI), vRNA of apical wash by RT-qPCR. Type of data set: cell-based.
In data set [2] the test system is SARS-CoV-2 nLUC reporter virus. Kind of data set: microbe, parasite or virus in culture. To be noted: for antiviral activity against SARS-CoV-2 reporter virus in A549-hACE2 cells: 10 to 0.002 μM. The class given is cell-based.
A short description of a further data set: in vitro. To be noted: human, A549-hACE2 cells, uninfected.
Another data set concerns Calu-3 cells. In words: Cell viability by nucleus counting in the Calu-3 dose-response assay. To be noted: 0.0025 to 50 μM.
Where [3] appears, read: Severe acute respiratory syndrome coronavirus 2, 48 h.

Molecules are shown by their SMILES. Where two headings read alike, the source gives them in different places.

Take `FC(F)(F)c1cc(C(F)(F)F)c2ccc3nc(-c4nnco4)cn3c2n1` [Example 1, 2-[2,4-bis(trifluoromethyl)imidazo[1,2-a]1,8-naphthyridin-8-yl]-1,3,4-oxadiazole]: the “antiviral activity against SARS-CoV-2 in Calu-3 cells” value in data set [1] is “activity in the μM range”. Further, the “inhibition of vRNA in apical wash fluid” value with SARS-CoV-2 B.1.1.7 (0.37 μM and lower, HAEC-ALI) is reported as “No inhibition was observed”; in the data set on SARS-CoV-2 B.1.1.7 (1.1 μM, day 9, HAEC-ALI), “statistically significant inhibition”; in the data set with SARS-CoV-2 B.1.1.7 (3 μM, day 4-11, HAEC-ALI), “statistically significant inhibition”; in the data set on SARS-CoV-2 B.1.1.7 (10 μM, all timepoints (day 2-11), HAEC-ALI), “statistically significant inhibition”. In addition, the “antiviral against SARS-CoV-2 (overall, HAEC-ALI)” value in the data set on SARS-CoV-2 B.1.1.7 (primary human bronchial cells, air liquid interface) is reported as “antiviral against SARS-CoV-2 when used in the μM range”. The IC50 in data set [2] was 1.71 µM; in data set [2] (setting [3]), more than 1 µM. Also, in data set [2], the “antiviral activity against SARS-CoV-2 reporter virus in A549-hACE2 cells” value is given as “has antiviral activity against SARS-CoV-2 reporter virus when used in the μM range”. In “in vitro”, the CC50 at 48 h was more than 10 µM. In addition, the “toxicity in Calu-3 cells” value in the data set with Calu-3 cells was “Neither compound showed toxicity”.
In the case of `FC(F)(F)c1nc(C(F)(F)F)c2ccc3nc(-c4nnco4)cn3c2n1` [Example 9, 2-(2,4-bis(trifluoromethyl)imidazo[1′2′:1,6]pyrido[2,3-d]pyrimidin-8-yl)-1,3,4-oxadiazole], the “antiviral activity against SARS-CoV-2 in Calu-3 cells” value in data set [1] is “activity in the μM range”. The “antiviral activity against SARS-CoV-2 reporter virus in A549-hACE2 cells” value in data set [2] was “has antiviral activity against SARS-CoV-2 reporter virus when used in the μM range”. The IC50 in data set [2] (setting [3]) is more than 1 µM. This compound also yielded a CC50 at 48 h in the data set “in vitro” of more than 10 µM. Also, the “toxicity in Calu-3 cells” value in the data set on Calu-3 cells was “Neither compound showed toxicity”.
In the case of `N#C[C@@]1(c2ccc3c(N)ncnn23)O[C@H](CO)[C@@H](O)[C@H]1O` [GS-441524, reference compound], the “inhibition of vRNA in apical wash fluid” value in the data set on SARS-CoV-2 B.1.1.7 (3 μM, all timepoints (day 2-11), HAEC-ALI) is recorded as “statistically significant inhibition”.

As usually defined, the IC50 is the midpoint of a concentration-inhibition curve. Read a low IC50 as greater potency. One may read the CC50 as the concentration at which the toxic effect on the cells reaches its halfway point. Low readings indicate harm at low concentration, high ones better tolerance by the cells.
